The record followed here is the supplement of paper PMC11208160.
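Also: IS621 recombinase and bridge RNA in Escherichia coli cells.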

This data set can be described thus: recombinant barcode read abundance after kanamycin selection (control-corrected) (log10(CPM+1)); higher = more efficient recombination; sequences stand for … in AGTGCAGAGAAAATCGGCCAGTTTTCTCTGCCTGCAGTCCGCATGCCGT…AGATTTATGCAGCGGACTGCCTTTCTCCCAAAGTGATAAACCGGACAGTATCATGGACCGGTTTTCCCGGTAATCCGTATTTGCAAGGTTGGTTTCACT; site = the 11-nt target. A digest of the protocol:
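In a pooled screen in E. coli, targets were paired with target-binding loops of the IS621 bridge RNA. Each oligo carried a promoter, a target, a barcode and the first 104 bridge RNA bases driven by J23119, and was Gibson-cloned into a vector holding the remaining 73 bp and a T7-inducible recombinase before co-electroporation with a donor plasmid. Duplicate platings went onto chloramphenicol/ampicillin LB agar as the control or onto chloramphenicol/ampicillin/kanamycin with 0.1 mM IPTG. Recombination efficiency is the averaged, control-corrected count per million of barcodes at recombinant junctions, given as log10(CPM+1).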
“CTCCATGCTTGGGTTCTAACCTGTTGCCT (site CTCCATGCTAG)”: the “recombinant barcode read abundance (log10)” value was 1.19.

Regarding “CTCCATGCTTGGGTTCTAACCTGTTGCCT (site CTCCATTCTAG)”, the “recombinant barcode read abundance (log10)” value is 0.0894.

Take “CTCCATTCTTGGGTTCTAACCTGTTGCCT (site CTCCATACTAG)”: the “recombinant barcode read abundance (log10)” value came out at 0.0751.

Turning to “CTCCATTCTTGGGTTCTAACCTGTTGCCT (site CTCCATCCTAG)”, the “recombinant barcode read abundance (log10)” value came out at 0.314.

“CTCCATTCTTGGGTTCTAACCTGTTGCCT (site CTCCATGCTAG)”: the “recombinant barcode read abundance (log10)” value was 0.129.

On to “CTCCATTCTTGGGTTCTAACCTGTTGCCT (site CTCCATTCTAG)”, for which the “recombinant barcode read abundance (log10)” value was 0.739.

With “CTCCCGACTTGGGTTCTAACCTGTTGCGC (site AGAGTAGCTTA)”, the “recombinant barcode read abundance (log10)” value came out at 0.119.

Turning to “CTCCCGACTTGGGTTCTAACCTGTTGCGC (site CTCCCGACTGC)”, the “recombinant barcode read abundance (log10)” value is 2.08.

Consider “CTCCCTGCTTGGGTTCTAACCTGTTGCCT (site CTCCCTGCTAG)”, for which the “recombinant barcode read abundance (log10)” value stood at 1.1.

As to “CTCCCTGCTTGGGTTCTAACCTGTTGCCT (site GAGGTCCCTCC)”, the “recombinant barcode read abundance (log10)” value is 0.0158.

For “CTCCGCCCTTGGGTTCTAACCTGTTGCTT (site CTCCGACCTAA)”, the “recombinant barcode read abundance (log10)” value came to 0.121.

In the case of “CTCCGCCCTTGGGTTCTAACCTGTTGCTT (site CTCCGCCCTAA)”, the “recombinant barcode read abundance (log10)” value turned out to be 0.578.

For the sequence “CTCCGCCCTTGGGTTCTAACCTGTTGCTT (site CTCCGGCCTAA)”, the “recombinant barcode read abundance (log10)” value came out at 0.106.

Take “CTCCGCCCTTGGGTTCTAACCTGTTGCTT (site CTCCGTCCTAA)”: the “recombinant barcode read abundance (log10)” value was determined as 0.0629.

“CTCCGCTCTTGGGTTCTAACCTGTTGCCT (site ATCCGCTCTAG)”: the “recombinant barcode read abundance (log10)” value was 0.211.

In the case of “CTCCGCTCTTGGGTTCTAACCTGTTGCCT (site CTCCGCTCTAG)”, the “recombinant barcode read abundance (log10)” value worked out at 2.28.

In the case of “CTCCGCTCTTGGGTTCTAACCTGTTGCCT (site GTCCGCTCTAG)”, the “recombinant barcode read abundance (log10)” value is 0.0686.

As to “CTCCGCTCTTGGGTTCTAACCTGTTGCCT (site TTCCGCTCTAG)”, the “recombinant barcode read abundance (log10)” value worked out at 0.113.

For “CTCCGTCCTTGGGTTCTAACCTGTTGCGT (site CTCCGCCCTAG)”, the “recombinant barcode read abundance (log10)” value was 0.23.

On to “CTCCGTCCTTGGGTTCTAACCTGTTGCGT (site CTCCGTCCTAC)”, for which the “recombinant barcode read abundance (log10)” value was found to be 2.54.

In the case of “CTCGAATCTTGGGTTCTAACCTGTTGCTT (site CTCGAATCTAA)”, the “recombinant barcode read abundance (log10)” value was 0.897.

“CTCGAATCTTGGGTTCTAACCTGTTGCTT (site GGGATCCCTCC)”: the “recombinant barcode read abundance (log10)” value was found to be 0.101.

“CTCGACCCTTGGGTTCTAACCTGTTGCAT (site CTCGACCCTAT)”: the “recombinant barcode read abundance (log10)” value turned out to be 2.4.

As for “CTCGACCCTTGGGTTCTAACCTGTTGCAT (site GGGCCTGCTTG)”, the “recombinant barcode read abundance (log10)” value worked out at 1.66.

As to “CTCGATTCTTGGGTTCTAACCTGTTGCAT (site CTCAATTCTAT)”, the “recombinant barcode read abundance (log10)” value was 0.355.

“CTCGATTCTTGGGTTCTAACCTGTTGCAT (site CTCCATTCTAT)”: the “recombinant barcode read abundance (log10)” value is 0.194.

For the sequence “CTCGATTCTTGGGTTCTAACCTGTTGCAT (site CTCGATTCTAT)”, the “recombinant barcode read abundance (log10)” value was 1.66.

Turning to “CTCGATTCTTGGGTTCTAACCTGTTGCAT (site CTCTATTCTAT)”, the “recombinant barcode read abundance (log10)” value turned out to be 0.213.

With “CTCGGTTCTTGGGTTCTAACCTGTTGCCT (site CTCGGTACTTG)”, the “recombinant barcode read abundance (log10)” value amounted to 0.128.

For “CTCGGTTCTTGGGTTCTAACCTGTTGCCT (site CTCGGTTCTAG)”, the “recombinant barcode read abundance (log10)” value came to 1.41.

Turning to “CTCGTAACTTGGGTTCTAACCTGTTGCCT (site CTCGTAACTAG)”, the “recombinant barcode read abundance (log10)” value is 0.361.

On to “CTCGTAACTTGGGTTCTAACCTGTTGCCT (site CTCGTCACTAG)”, for which the “recombinant barcode read abundance (log10)” value amounted to 0.0602.

On to “CTCGTAACTTGGGTTCTAACCTGTTGCCT (site CTCGTGACTAG)”, for which the “recombinant barcode read abundance (log10)” value is 0.123.

“CTCGTAACTTGGGTTCTAACCTGTTGCCT (site CTCGTTACTAG)”: the “recombinant barcode read abundance (log10)” value came out at 1.13.

With “CTCTACACTTGGGTTCTAACCTGTTGCTG (site CTCGACACTCA)”, the “recombinant barcode read abundance (log10)” value stood at 0.116.

Regarding “CTCTACACTTGGGTTCTAACCTGTTGCTG (site CTCTACACTCA)”, the “recombinant barcode read abundance (log10)” value is 1.13.

On to “CTCTACTCTTGGGTTCTAACCTGTTGCCT (site CTCTACTCTAG)”, for which the “recombinant barcode read abundance (log10)” value was found to be 2.02.

As for “CTCTACTCTTGGGTTCTAACCTGTTGCCT (site TTCTACTCTAG)”, the “recombinant barcode read abundance (log10)” value was 0.0366.

Take “CTCTAGACTTGGGTTCTAACCTGTTGCTG (site CTCAAGACTCC)”: the “recombinant barcode read abundance (log10)” value was 0.0495.

Turning to “CTCTAGACTTGGGTTCTAACCTGTTGCTG (site CTCTAGACTCA)”, the “recombinant barcode read abundance (log10)” value worked out at 1.82.

As for “CTCTAGGCTTGGGTTCTAACCTGTTGCCT (site CTCTAGGCTAG)”, the “recombinant barcode read abundance (log10)” value worked out at 0.0135.

Consider “CTCTAGGCTTGGGTTCTAACCTGTTGCCT (site CTCTCGGCTAG)”, for which the “recombinant barcode read abundance (log10)” value worked out at 0.186.

“CTCTAGGCTTGGGTTCTAACCTGTTGCCT (site CTCTGGGCTAG)”: the “recombinant barcode read abundance (log10)” value is 0.202.

As for “CTCTAGGCTTGGGTTCTAACCTGTTGCCT (site CTCTTGGCTAG)”, the “recombinant barcode read abundance (log10)” value turned out to be 0.13.

As for “CTCTCATCTTGGGTTCTAACCTGTTGCCT (site CTCTCATCTAA)”, the “recombinant barcode read abundance (log10)” value stood at 0.125.

Turning to “CTCTCATCTTGGGTTCTAACCTGTTGCCT (site CTCTCATCTAG)”, the “recombinant barcode read abundance (log10)” value was 0.149.

With “CTCTCGTCTTGGGTTCTAACCTGTTGCCT (site CTCTCGTCTAA)”, the “recombinant barcode read abundance (log10)” value stood at 0.11.

In the case of “CTCTCGTCTTGGGTTCTAACCTGTTGCCT (site CTCTCGTCTAC)”, the “recombinant barcode read abundance (log10)” value is 0.119.

With “CTCTCGTCTTGGGTTCTAACCTGTTGCCT (site CTCTCGTCTAG)”, the “recombinant barcode read abundance (log10)” value was found to be 0.944.

As to “CTCTCGTCTTGGGTTCTAACCTGTTGCCT (site CTCTCGTCTAT)”, the “recombinant barcode read abundance (log10)” value stood at 0.0858.

Turning to “CTCTCTTCTTGGGTTCTAACCTGTTGCCT (site CTCTCTCCTAG)”, the “recombinant barcode read abundance (log10)” value is 0.0216.

For “CTCTCTTCTTGGGTTCTAACCTGTTGCCT (site CTCTCTTCTAG)”, the “recombinant barcode read abundance (log10)” value was determined as 0.114.

In the case of “CTCTGAGCTTGGGTTCTAACCTGTTGCAG (site ACTGCTCCTAG)”, the “recombinant barcode read abundance (log10)” value is 0.0584.

With “CTCTGAGCTTGGGTTCTAACCTGTTGCAG (site CTCTGAGCTCT)”, the “recombinant barcode read abundance (log10)” value was 0.538.

Consider “CTCTGCTCTTGGGTTCTAACCTGTTGCTT (site CACTCCTCTAA)”, for which the “recombinant barcode read abundance (log10)” value stood at 0.0518.

With “CTCTGCTCTTGGGTTCTAACCTGTTGCTT (site CTCTGCTCTAA)”, the “recombinant barcode read abundance (log10)” value is 0.245.

Regarding “CTCTGTCCTTGGGTTCTAACCTGTTGCTG (site CTCTGTCCTCA)”, the “recombinant barcode read abundance (log10)” value was 0.374.

As to “CTCTGTCCTTGGGTTCTAACCTGTTGCTG (site GCTGAGACTAC)”, the “recombinant barcode read abundance (log10)” value was found to be 0.0997.

With “CTCTTCCCTTGGGTTCTAACCTGTTGCTT (site CTATTCCCTCA)”, the “recombinant barcode read abundance (log10)” value is 0.155.

As for “CTCTTCCCTTGGGTTCTAACCTGTTGCTT (site CTCTTCCCTAA)”, the “recombinant barcode read abundance (log10)” value came out at 0.594.

For the sequence “CTCTTGTCTTGGGTTCTAACCTGTTGCTG (site CTCGTGTCTCT)”, the “recombinant barcode read abundance (log10)” value is 0.0114.

On to “CTCTTGTCTTGGGTTCTAACCTGTTGCTG (site CTCTTGTCTCA)”, for which the “recombinant barcode read abundance (log10)” value was 1.01.

“CTGAGAGCTTGGGTTCTAACCTGTTGCCT (site CAGAGAGCTAG)”: the “recombinant barcode read abundance (log10)” value worked out at 0.319.

On to “CTGAGAGCTTGGGTTCTAACCTGTTGCCT (site CCGAGAGCTAG)”, for which the “recombinant barcode read abundance (log10)” value came out at 0.058.

With “CTGAGAGCTTGGGTTCTAACCTGTTGCCT (site CGGAGAGCTAG)”, the “recombinant barcode read abundance (log10)” value stood at 0.156.

Regarding “CTGAGAGCTTGGGTTCTAACCTGTTGCCT (site CTGAGAGCTAG)”, the “recombinant barcode read abundance (log10)” value turned out to be 1.61.

On to “CTGAGCCCTTGGGTTCTAACCTGTTGCAT (site CGGAGCCCTCT)”, for which the “recombinant barcode read abundance (log10)” value was 0.0964.

As for “CTGAGCCCTTGGGTTCTAACCTGTTGCAT (site CTGAGCCCTAT)”, the “recombinant barcode read abundance (log10)” value turned out to be 1.09.

Consider “CTGAGGACTTGGGTTCTAACCTGTTGCCT (site ATGAGGACTAG)”, for which the “recombinant barcode read abundance (log10)” value worked out at 0.0813.

With “CTGAGGACTTGGGTTCTAACCTGTTGCCT (site CTGAGGACTAG)”, the “recombinant barcode read abundance (log10)” value came out at 1.29.

With “CTGAGGACTTGGGTTCTAACCTGTTGCCT (site GTGAGGACTAG)”, the “recombinant barcode read abundance (log10)” value came out at 0.0454.

In the case of “CTGAGGACTTGGGTTCTAACCTGTTGCCT (site TTGAGGACTAG)”, the “recombinant barcode read abundance (log10)” value is 0.325.

Turning to “CTGATCACTTGGGTTCTAACCTGTTGCCT (site CTGATAACTAG)”, the “recombinant barcode read abundance (log10)” value amounted to 0.0217.

“CTGATCACTTGGGTTCTAACCTGTTGCCT (site CTGATCACTAG)”: the “recombinant barcode read abundance (log10)” value is 1.03.

Take “CTGATCACTTGGGTTCTAACCTGTTGCCT (site CTGATGACTAG)”: the “recombinant barcode read abundance (log10)” value amounted to 0.0708.

“CTGATCACTTGGGTTCTAACCTGTTGCCT (site CTGATTACTAG)”: the “recombinant barcode read abundance (log10)” value was 0.202.

In the case of “CTGCACCCTTGGGTTCTAACCTGTTGCAG (site CTGCACCCTCT)”, the “recombinant barcode read abundance (log10)” value came out at 0.477.
